Data taken from PubChem BioAssay (NCI).
Where “and” joins values, the source holds several entries; their conditions need not be identical. Equal values may be shown once.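 Results reflect a 48-hour exposure of cells in 96-well plates to compound at five concentrations. At the GI50, growth is halved. At the TGI there is no net growth.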

Tests used:
Test in all cases: growth of human tumour cells (NCI), 48 h
PC-3 prostate = tested on: PC-3 prostate
HCT-116 colon = tested on: HCT-116 colon
A498 renal = tested on: A498 renal
786-0 renal = tested on: 786-0 renal
CAKI-1 renal = tested on: CAKI-1 renal
SF-268 CNS = tested on: SF-268 CNS
NCI-H23 lung = tested on: NCI-H23 lung
RPMI-8226 leukemia = tested on: RPMI-8226 leukemia
OVCAR-4 ovarian = tested on: OVCAR-4 ovarian
OVCAR-3 ovarian = tested on: OVCAR-3 ovarian

SMILES | TGI (PC-3 prostate) [µM] | TGI (HCT-116 colon) [µM] | TGI (A498 renal) [µM] | TGI (786-0 renal) [µM] | TGI (CAKI-1 renal) [µM] | TGI (SF-268 CNS) [µM] | TGI (NCI-H23 lung) [µM] | TGI (RPMI-8226 leukemia) | TGI (OVCAR-4 ovarian) [µM] | TGI (OVCAR-3 ovarian) | GI50 (PC-3 prostate) [µM] | GI50 (786-0 renal) [µM] | GI50 (CAKI-1 renal) [µM] | GI50 (SF-268 CNS) [µM] | GI50 (NCI-H23 lung) [µM] | GI50 (OVCAR-4 ovarian) [µM] | GI50 (OVCAR-3 ovarian) [µM] | GI50 (HCT-116 colon) [µM] | GI50 (A498 renal) [µM] | GI50 (RPMI-8226 leukemia) [µM]
O=[N+]([O-])c1cc(C(F)(F)F)cc2n[se]nc12 | 8.32 | 3.46 | 31.5 | 4.85 | 9 | 15.3 | 9.58 | 2.89 µM | 3.84 | 3.33 µM |  |  |  |  |  |  |  |  |  | 
O=C1NC(c2cccc3ccccc23)Nc2ccccc21 (stereo not given) | 0.213 |  | 0.0848 | > 100 | 1.82 | > 100 | 24.8 | 0.493 µM and 1.05 µM | > 100 | 0.0568 µM and 0.0442 µM | 0.0263 | 0.0254 | 0.0282 | 0.0485 | 0.0262 | 0.166 | 0.0215 |  |  | 
O=C(Nc1cccc(-n2ccc3c(NC(=O)c4ccccc4)nccc32)c1)c1ccc(Cl)c(Cl)c1 | 1.52 | 1.22 | 0.735 | 1.59 | 1.9 | 2.18 | 2.47 | 1.16 µM | 2 | 0.162 µM | 0.0965 | 0.242 | 0.0531 | 0.19 | 0.342 | 0.611 | 0.0413 | 0.0989 | 0.13 | 0.263
O=C(O)CC(S)C(=O)O.[Li+].[Sb] (stereo not given) | > 100 | > 100 | > 100 | > 100 | > 100 | > 100 | > 100 | > 100 µM | > 100 | > 100 µM | > 100 | > 100 | > 100 | > 100 | > 100 | > 100 | > 100 | > 100 | > 100 | 63.3
COc1ccc2[nH]cc(C3(c4c[nH]c5ccc(OC)cc45)C(=O)Nc4ccc(Cl)cc43)c2c1 | 38.4 | 10.7 | 18.7 | 83.9 | > 100 | 57.9 | 23.2 | > 100 µM | 30.5 | 8.5 µM | 3.96 | 4.43 | 2.25 | 4.81 | 3.03 | 3.67 | 2.99 | 3.63 | 4.94 | 6.51
COc1ccc(C(=O)/C=C/c2c(C(F)(F)F)nc3ccccn23)cc1OC | > 100 | 4.26 | 21.7 | > 100 | > 24.5 | > 24.7 | > 26.9 | 1.67 µM | > 48.6 | 6.09 µM | 2.73 | 2.26 | 1.71 | 2.07 | 1.66 | 3.28 | 2.28 | 0.561 | 3.46 | 0.362
COc1ccc(Cl)cc1Nc1nc(C(F)(F)F)ccc1C(=O)N/N=C/c1ccccc1Cl | > 100 | > 100 | 19.5 | > 23 | 8.19 | > 23.2 | > 31.4 | 6.81 µM | > 100 | 3.75 µM | 2.84 | 4.66 | 0.994 | 2.22 | 2.99 | 1.93 | 1.04 | 2.81 | 3.44 | 2.17
CC(C)c1ccc(C(O)(C(=O)O)c2ccc(C(C)C)cc2)cc1 | 51.1 | > 100 | > 100 | > 100 | > 100 | > 100 | > 100 | 72 µM | > 100 | 60.7 µM |  |  |  |  |  |  |  |  |  | 
CCc1nc(N)nc(N)c1-c1ccc(N(C)Cc2ccccc2)c([N+](=O)[O-])c1 | 16.6 | 10 | 19.8 | 30.3 | 25.4 | 37.9 | 24.4 | 4.13 µM | 52.1 | 22.6 µM |  |  |  |  |  |  |  |  |  | 
Cc1nccc2c3ccc(OCc4cn(-c5ccc(Br)cc5)nn4)cc3n(CCCc3ccccc3)c12 | > 100 | > 100 | > 100 | 3.13 |  | 5.85 |  |  |  | > 100 µM | 3.42 | 1.49 |  | 2.17 |  |  | > 100 | 7.2 | > 100 | 
CN(C)C[C@@H]1CCn2cc(c3ccccc32)C2=C(C(=O)NC2=O)c2cn(c3ccccc23)CCO1 | > 10 | 1.56 | 4.54 | 3.93 | > 10 | > 10 | > 10 | 4.02 µM | > 10 | > 10 µM | 1.77 | 1.78 | 1.36 | 4.1 | 2.95 | 2.58 | 2.65 | 0.374 | 1.13 | 1.13
CCOC(=O)Nc1cc2c(c(N)n1)N=C(c1ccccc1)CN2 | < 0.0001 |  | 22.2 | 25.9 | 27.7 | 34.8 |  |  | > 100 | < 0.0001 µM | < 0.0001 | < 0.0001 |  | < 0.0001 | < 0.0001 |  | < 0.0001 | < 0.0001 |  | < 0.0001
COC1/C=C/OC2(C)Oc3c(C)c(O)c4c(O)c(c(/C=N/N(c5ccccc5)c5ccccc5)c(O)c4c3C2=O)NC(=O)C(C)=C/C=C/C(C)C(O)C(C)C(O)C(C)C(OC(C)=O)C1C (stereo not given) | 4.95 | 1.76 | 7.42 | 5.96 | 11.2 | 8.51 | 8.98 | 4.42 µM | 7.6 | 1.7 µM | 1.27 | 1.63 | 2.42 | 1.93 | 1.96 | 1.95 | 0.852 | 0.858 | 1.63 | 1.16
CCN(CC)CCNc1ccc(N=Nc2cnc3ccccc3c2)c2ccccc12 | 2.6 | 2.84 | 3.05 | 3.35 | 3.21 | 3.48 | 3.07 |  | 3.88 | 3.43 µM | 1.28 | 1.93 | 1.39 | 1.74 | 1.6 | 1.85 | 1.78 | 1.51 | 1.65 | 
